According to publication PMC9687209 (2022):

How the values were obtained:
[1] = system: C1-d (DNA, aptamer) CCGAGGTGTGTACACCGTG; experiment: BLI; details: 177.7 mM Na+, 0.492 mM Mg2+, 0.2 g/L KCl, 0.2 g/L KH2PO4, 0.1 g/L CaCl2, pH 7.4, 25 °C
[2] = system: C1-s (DNA, aptamer) CCAACATGATGTTCCGTCATTTTGAGGTGTGTACACCGTG; experiment: BLI; details: 177.7 mM Na+, 0.492 mM Mg2+; 0.2 g/L KCl, 0.2 g/L KH2PO4, 0.1 g/L CaCl2; selection buffer (NaCl/phosphate), pH 7.4, 25 °C
[3] = system: C66 (DNA, aptamer) ATTGGCACTCCACGCATAGGGGTGGTCTTCTGGGTAATCCCCGACTACCCTTATGCCGGCCCTATGCGTGCTACCGTGAA; experiment: BLI; details: 177.7 mM Na+, 0.492 mM Mg2+; 0.2 g/L KCl, 0.2 g/L KH2PO4, 0.1 g/L CaCl2; selection buffer (NaCl/phosphate), pH 7.4, 25 °C
[4] = system: htC5 (DNA, aptamer) ATTGGCACTCCACGCATAGGGGAGGGCCGGTTGAACTGTAATGTGTAAACCACGCGCTACCCTATGCGTGCTACCGTGAA; experiment: BLI; details: 177.7 mM Na+, 0.492 mM Mg2+; 0.2 g/L KCl, 0.2 g/L KH2PO4, 0.1 g/L CaCl2; selection buffer (NaCl/phosphate), pH 7.4, 25 °C; NB [sic]; highest concentration not stated
[5] = system: C100/htC4 (DNA, aptamer) ATTGGCACTCCACGCATAGGGAATGGACCCGGTATAATTCCCTCAAGAGTGCCAATTTCACCTATGCGTGCTACCGTGAA; experiment: BLI; details: 177.7 mM Na+, 0.492 mM Mg2+; 0.2 g/L KCl, 0.2 g/L KH2PO4, 0.1 g/L CaCl2; selection buffer (NaCl/phosphate), pH 7.4, 25 °C
[6] = system: C1-d (DNA, aptamer) CCGAGGTGTGTACACCGTG; experiment: BLI response, four-parameter logistic fit; details: 177.7 mM Na+, 0.492 mM Mg2+; 0.2 g/L KCl, 0.2 g/L KH2PO4, 0.1 g/L CaCl2; selection buffer, pH 7.4, 25 °C; calibration curve 0.625-30 μM DA; Hill slope 1.351
[7] = system: C87 (DNA, aptamer) ATTGGCACTCCACGCATAGGGGAAGCTGCTCTCATCAATAAAAAATGAGACGGAGGTTACCCTATGCGTGCTACCGTGAA; experiment: BLI; details: 177.7 mM Na+, 0.492 mM Mg2+; 0.2 g/L KCl, 0.2 g/L KH2PO4, 0.1 g/L CaCl2; selection buffer (NaCl/phosphate), pH 7.4, 25 °C
[8] = system: C12/htC2 (DNA, aptamer) ATTGGCACTCCACGCATAGGGACATCGAGAAGAATCCTGATACGACTTGGCTTTGCTGGCCCTATGCGTGCTACCGTGAA; experiment: BLI; details: 177.7 mM Na+, 0.492 mM Mg2+; 0.2 g/L KCl, 0.2 g/L KH2PO4, 0.1 g/L CaCl2; selection buffer (NaCl/phosphate), pH 7.4, 25 °C
[9] = system: C1-a (DNA, aptamer) CAACATGATGTTCCGTCATTTTG; experiment: BLI; details: 177.7 mM Na+, 0.492 mM Mg2+; 0.2 g/L KCl, 0.2 g/L KH2PO4, 0.1 g/L CaCl2; selection buffer (NaCl/phosphate), pH 7.4, 25 °C
[10] = system: Random Sequence (DNA, single strand) ATTGGCACTCCACGCATAGGATTCCGGCTAATCGACTGACTGCCGGTACGATGCAGTCAGCCTATGCGTGCTACCGTGAA; experiment: BLI; details: 177.7 mM Na+, 0.492 mM Mg2+; 0.2 g/L KCl, 0.2 g/L KH2PO4, 0.1 g/L CaCl2; selection buffer, pH 7.4, 25 °C; NB [sic]; 6.25 μM tested in Figure 4
[11] = system: C1-c (DNA, aptamer) CCAACATGATGTTCCGTCATTTTGAGCGTG; experiment: BLI; details: 177.7 mM Na+, 0.492 mM Mg2+; 0.2 g/L KCl, 0.2 g/L KH2PO4, 0.1 g/L CaCl2; selection buffer (NaCl/phosphate), pH 7.4, 25 °C
[12] = system: C53 (DNA, aptamer) ATTGGCACTCCACGCATAGGGTAAAGTACGTATGTCATGCACATGCCGTATTCTCTTTGCCCTATGCGTGCTACCGTGAA; experiment: BLI; details: 177.7 mM Na+, 0.492 mM Mg2+; 0.2 g/L KCl, 0.2 g/L KH2PO4, 0.1 g/L CaCl2; selection buffer (NaCl/phosphate), pH 7.4, 25 °C; NB [sic]; highest concentration not stated
[13] = system: C1/htC1 (DNA, aptamer) ATTGGCACTCCACGCATAGGCCAACATGATGTTCCGTCATTTTGAGGTGTGTACACCGTGCCTATGCGTGCTACCGTGAA; experiment: BLI; details: 177.7 mM Na+, 0.492 mM Mg2+; 0.2 g/L KCl, 0.2 g/L KH2PO4, 0.1 g/L CaCl2; selection buffer (NaCl/phosphate), pH 7.4, 25 °C
[14] = system: C116 (DNA, aptamer) ATTGGCACTCCACGCATAGGGATCTCATAACCAGTCTCTTTGACTGATGTTAGTAAGGTCCCTATGCGTGCTACCGTGAA; experiment: BLI; details: 177.7 mM Na+, 0.492 mM Mg2+; 0.2 g/L KCl, 0.2 g/L KH2PO4, 0.1 g/L CaCl2; selection buffer (NaCl/phosphate), pH 7.4, 25 °C
[15] = system: C58/htC3 (DNA, aptamer) ATTGGCACTCCACGCATAGGCCAAGGTGTCAATCTTGAATAGCTGTGTAACGTCTATGTGCCTATGCGTGCTACCGTGAA; experiment: BLI; details: 177.7 mM Na+, 0.492 mM Mg2+; 0.2 g/L KCl, 0.2 g/L KH2PO4, 0.1 g/L CaCl2; selection buffer (NaCl/phosphate), pH 7.4, 25 °C
[16] = system: C2 (DNA, aptamer) ATTGGCACTCCACGCATAGGGGATAACGGGTTGATGGTACTTCTATCTATCGCGTTGTGCCCTATGCGTGCTACCGTGAA; experiment: BLI; details: 177.7 mM Na+, 0.492 mM Mg2+; 0.2 g/L KCl, 0.2 g/L KH2PO4, 0.1 g/L CaCl2; selection buffer (NaCl/phosphate), pH 7.4, 25 °C
[17] = system: C1-b (DNA, aptamer) GGTGTGTACACC; experiment: BLI; details: 177.7 mM Na+, 0.492 mM Mg2+; 0.2 g/L KCl, 0.2 g/L KH2PO4, 0.1 g/L CaCl2; selection buffer (NaCl/phosphate), pH 7.4, 25 °C

binding ([1]; selection buffer, 6.25 μM tested)	KD [2]	KD [3]	binding [4]	KD [5]	EC50 [6]	KD [7]	KD [8]	KD ([1]; selection buffer (NaCl/phosphate), kon 2.94 × 10^5 1/Ms, kdis 5.13 × 10^-2 1/s)	KD [9]	binding [10]	KD [11]	binding [12]	KD [13]	KD [14]	KD [15]	KD [16]	KD [17]	Structure (SMILES)
no	–	–	–	–	–	–	–	–	–	–	–	–	–	–	–	–	–	C=C1[C@@H](O)[C@@H]2O[C@]3(CC[C@H](/C=C/[C@@H](C)[C@@H]4CC(C)=C[C@@]5(O[C@H](C[C@@](C)(O)C(=O)O)CC[C@H]5O)O4)O3)CC[C@H]2O[C@@H]1[C@@H](O)C[C@H](C)[C@H]1O[C@@]2(CCCCO2)CC[C@H]1C
–	1.5 ± 0.113 µM	22.7 µM	no	3.25 µM	12.57 µM	5.04 µM	5.21 µM	109 ± 9.31 nM	6.9 ± 0.628 µM	no	4.9 ± 0.312 µM	no	1.69 µM	11.7 µM	6.33 µM	20.3 µM	167 ± 9.33 nM	C/C(=C/C=C/[C@@H](C)C(=O)O)[C@H]1CN[C@H](C(=O)O)[C@H]1CC(=O)O
